Data as given in patent publication US9684238B2, “Fluorene-type compound, photopolymerization initiator comprising said fluorene-type compound, and photosensitive composition containing said photopolymerization initiator” (TOKYO OHKA KOGYO CO., LTD., priority 2012, dated 2017).

Legend:
[1] = Evaluation 3: 20-μm pattern line width of black photosensitive composition; settings: black composition (carbon black, cardo resin), initiator 0.4 mmol
Summary of the method: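 Composition spin-coated on glass to 1.0 μm dry thickness, dried 90 °C for 10 min, exposed at 10–80 mJ/cm^2 via high-pressure mercury lamp through 20 μm negative mask, developed in 0.1 wt % TMAH, rinsed. Line width of remaining cured film measured; larger width means higher sensitivity.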

[2] = Evaluation 1: 20-μm pattern line width of transparent photosensitive composition; settings: transparent composition, initiator 0.4 mmol
[3] = Average transmittance of composition; assay type: physicochemical; settings: photosensitive composition, quartz cell, optical path length 1 cm
Description: The average transmittance (%) of each of the photosensitive resin compositions obtained in Examples 1 to 9, Examples 2-1 to 2-10, and Comparative Examples 1 and 2 in the range of from 400 nm to 700 nm was measured with a spectrophotometer (manufactured by Hitachi High-Technologies Corporation, trade name: “U-3900H”, quartz cell, optical path length; 1 cm).

[4] = Transparency: coloring of the photopolymerization initiator before and after exposure; assay type: physicochemical; settings: 40 g/L in tetrahydrofuran; 365 nm UV, 850 to 2,550 mJ/cm^2; compared with compound C-1
Description: An influence on the coloring of a photopolymerization initiator after its exposure was confirmed because the photopolymerization initiator was required to have transparency. Specifically, as described below, the degrees of coloring (color change) of the photopolymerization initiator itself before and after its exposure were evaluated by measuring its absorbance. A 40 g/L solution of the compound 4 of Synthesis Example 4 in tetrahydrofuran was prepared, and the solution was loaded into a lidded UV cell made of quartz (12.5×12.5×58 mm) having an optical path length of 1 cm. The absorption spectrum of the solution before its exposure was measured with a spectrophotometer (manufactured by Hitachi High-Technologies Corporation, trade name: “U-3900H”). After that, the quartz surface of the UV cell was vertically irradiated with 850 mJ/cm^2 of UV light having a wavelength of 365 nm by using an exposure apparatus (manufactured by Ushio Inc., trade name: “[…]” (ML-251A/B) and optical unit (PM25C-100)), and the absorption spectrum of the solution was measured again. The foregoing operations were repeatedly performed, and a change in absorbance of the solution by UV irradiation was measured. […]
The axis of abscissa of the graph of FIG. 1(A) indicates the measurement wavelength (nm) of an absorption spectrum and the axis of ordinate thereof indicates an absorbance (Abs.) at the wavelength. […]

[5] = Solubility in PGME, PGMEA and ethyl lactate; assay type: physicochemical

CCCC1(CCC)c2cc(C(=O)c3ccccc3C)ccc2-c2ccc(/C(C)=N/OC(C)=O)cc21 [Compound 4]
20-μm pattern line width ([1]; 10 mJ/cm^2): 19.4 | 20-μm pattern line width ([1]; 20 mJ/cm^2): 20.0 | 20-μm pattern line width ([1]; 40 mJ/cm^2): 21.3 | 20-μm pattern line width ([1]; 60 mJ/cm^2): 22.1 | 20-μm pattern line width ([1]; 80 mJ/cm^2): 22.4 | 20-μm pattern line width ([2]; exposure energy quantity 10 mJ/cm^2): 19.4 | 20-μm pattern line width ([2]; exposure energy quantity 20 mJ/cm^2): 20.0 | 20-μm pattern line width ([2]; exposure energy quantity 40 mJ/cm^2): 21.3 | 20-μm pattern line width ([2]; exposure energy quantity 60 mJ/cm^2): 22.1 | 20-μm pattern line width ([2]; exposure energy quantity 80 mJ/cm^2): 22.4 | Average transmittance (700 nm to 400 nm) Solution [3]: 96.3% | influence on the coloring by the exposure [4]: small | Solubility Ethyl lactate ([5]; in 100 parts by weight of ethyl lactate, room temperature): B (An amount in the range of from 5 parts by weight or more to less than 10 parts by weight of the photopolymerization initiator is dissolved.) | Solubility PGMEA ([5]; in 100 parts by weight of propylene glycol monomethyl ether acetate, room temperature): A (10 Parts by weight or more of the photopolymerization initiator is dissolved.) | Solubility PGME ([5]; in 100 parts by weight of propylene glycol monomethyl ether, room temperature): B (An amount in the range of from 5 parts by weight or more to less than 10 parts by weight of the photopolymerization initiator is dissolved.) | solubility (in words) ([5]; photopolymerization initiator containing the compound): additionally excellent solubility
